Test results as given in PubChem BioAssay AID248 (DTP/NCI, 2004).
Several values for one entry are separate records, joined by “and”; a condition that tells them apart may be missing. Equal values may be shown once. Toxic doses and inconclusive results are not listed. No stated cut-off is given here; in the data, active means T/C of 150% or more; inactive means T/C below 125%.

Test system: L1210 leukemia ip in BDF1 mice, survival T/C
Experiment: NCI In Vivo Anticancer Drug Screen. Data for tumor model L1210 Leukemia (intraperitoneal) in B6D2F1 (BDF1) mice
Conditions: endpoint: mean survival time, higher = longer survival
In short: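 Tumor was transplanted into mice, which were then dosed with test compound or vehicle alone. Survival was recorded for each group, and the treated figure was expressed relative to the control figure.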

[1] = dose: 100.0 mg/kg/injection, schedule: Q04DX002 (ip), vehicle: Klucel (hydroxypropylcellulose) (HPC)
[2] = dose: 200.0 mg/kg/injection, schedule: Q04DX002 (ip), vehicle: Klucel (hydroxypropylcellulose) (HPC)
[3] = dose: 400.0 mg/kg/injection, schedule: Q04DX002 (ip), vehicle: Klucel (hydroxypropylcellulose) (HPC)
[4] = dose: 100.0 mg/kg/injection, schedule: Q01DX009 (ip), vehicle: Klucel (hydroxypropylcellulose) (HPC)
[5] = dose: 200.0 mg/kg/injection, schedule: Q01DX009 (ip), vehicle: Klucel (hydroxypropylcellulose) (HPC)
[6] = dose: 400.0 mg/kg/injection, schedule: Q01DX009 (ip), vehicle: Klucel (hydroxypropylcellulose) (HPC)
[7] = dose: 100.0 mg/kg/injection, schedule: Q01DX009 (ip), vehicle: saline
[8] = dose: 100.0 mg/kg/injection, schedule: Q04DX003 (ip), vehicle: saline
[9] = dose: 200.0 mg/kg/injection, schedule: Q01DX009 (ip), vehicle: saline
[10] = dose: 200.0 mg/kg/injection, schedule: Q04DX003 (ip), vehicle: saline
[11] = dose: 100.0 mg/kg/injection, schedule: Q01DX001 (ip), vehicle: saline
[12] = dose: 200.0 mg/kg/injection, schedule: Q01DX001 (ip), vehicle: saline
[13] = dose: 400.0 mg/kg/injection, schedule: Q01DX001 (ip), vehicle: saline
[14] = dose: 100.0 mg/kg/injection, schedule: Q04DX003 (ip), vehicle: Klucel (hydroxypropylcellulose) (HPC)
[15] = dose: 400.0 mg/kg/injection, schedule: Q01DX009 (ip), vehicle: saline
[16] = dose: 400.0 mg/kg/injection, schedule: Q04DX003 (ip), vehicle: saline
[17] = dose: 100.0 mg/kg/injection, schedule: Q01DX009 (ip), vehicle: saline with Tween-80
[18] = dose: 200.0 mg/kg/injection, schedule: Q01DX009 (ip), vehicle: saline with Tween-80
[19] = dose: 400.0 mg/kg/injection, schedule: Q01DX009 (ip), vehicle: saline with Tween-80

Measured: T/C

CCOC(=N)C(O)c1ccccc1 (stereo not drawn)
inactive: dose: 100.0 mg/kg/injection, schedule: Q04DX002 (ip), vehicle: saline with Tween-80 111 % of control | dose: 200.0 mg/kg/injection, schedule: Q04DX002 (ip), vehicle: saline with Tween-80 100 % of control | dose: 400.0 mg/kg/injection, schedule: Q04DX002 (ip), vehicle: saline with Tween-80 100 % of control

O=C(OCc1ccccc1CN1CCCC1)c1ccc(Br)cc1
inactive: [1] 111 % of control | [2] 90 % of control | [3] 96 % of control

N#CCCN(Cc1ccncc1)CN1C(=O)c2ccccc2C1=O
inactive: [4] 101 % of control | [5] 87 % of control | [6] 96 % of control

CCN(CC)CCCC#CCN1CCOCC1
inactive: dose: 50.0 mg/kg/injection, schedule: Q01DX009 (ip), vehicle: saline 101 % of control | [7] 93 % of control | [8] 103 % of control | [9] 93 % of control | [10] 109 % of control

CO[C@H]1/C=C/O[C@@]2(C)Oc3c(C)c(O)c4c(O)c(c(/C=N/N5CCN(C)CC5)c(O)c4c3C2=O)NC(=O)/C(C)=C\C=C\[C@H](C)[C@H](O)[C@@H](C)[C@@H](O)[C@@H](C)[C@H](OC(C)=O)[C@@H]1C
inactive: dose: 25.0 mg/kg/injection, schedule: Q01DX009 (ip), vehicle: Klucel (hydroxypropylcellulose) (HPC) 96 % of control | dose: 50.0 mg/kg/injection, schedule: Q01DX001 (ip), vehicle: water 97 % of control | dose: 50.0 mg/kg/injection, schedule: Q01DX009 (ip), vehicle: Klucel (hydroxypropylcellulose) (HPC) 94 % of control | [11] 97 % of control | dose: 100.0 mg/kg/injection, schedule: Q01DX001 (ip), vehicle: water 103 % of control | [4] 94 % of control | [12] 100 % of control | dose: 200.0 mg/kg/injection, schedule: Q01DX001 (ip), vehicle: water 100 % of control | [13] 97 % of control | dose: 400.0 mg/kg/injection, schedule: Q01DX001 (ip), vehicle: water 108 % of control | dose: 1200.0 mg/kg/injection, schedule: Q01DX001 (ip), vehicle: acetone 102 % of control

[CH3][Pb]([CH3])([CH3])[NH]C#N
inactive: dose: 5.0 mg/kg/injection, schedule: Q04DX003 (ip), vehicle: saline 101 % of control | dose: 10.0 mg/kg/injection, schedule: Q04DX003 (ip), vehicle: saline 86 % of control

CC(=O)CCC(C(C)=O)C(C)=O
inactive: [11] 106 % of control | [12] 106 % of control | [13] 103 % of control

N#CCC[P+](c1ccccc1)(c1ccccc1)c1ccccc1
inactive: dose: 5.0 mg/kg/injection, schedule: Q01DX001 (ip), vehicle: saline 102 % of control | dose: 10.0 mg/kg/injection, schedule: Q01DX001 (ip), vehicle: saline 102 % of control | dose: 20.0 mg/kg/injection, schedule: Q01DX001 (ip), vehicle: saline 102 % of control | dose: 40.0 mg/kg/injection, schedule: Q01DX001 (ip), vehicle: saline 102 % of control | dose: 80.0 mg/kg/injection, schedule: Q01DX001 (ip), vehicle: saline 100 % of control | [11] 109 % of control | [12] 108 % of control

COc1cccc(/C=C2\SC(=S)NC2=O)c1
inactive: [11] 101 % of control | [12] 95 % of control | [13] 95 % of control

Cc1cc(NS(=O)(=O)c2ccccc2)c2c(c1NS(=O)(=O)c1ccccc1)CC=CC2
inactive: [4] 103 % of control | [14] 103 % of control | [5] 100 % of control | dose: 200.0 mg/kg/injection, schedule: Q04DX003 (ip), vehicle: Klucel (hydroxypropylcellulose) (HPC) 95 % of control | [6] 111 % of control | dose: 400.0 mg/kg/injection, schedule: Q04DX003 (ip), vehicle: Klucel (hydroxypropylcellulose) (HPC) 94 % of control

O=c1[nH]cnc2c1ncn2CCCCCCl
inactive: [14] 102 % of control

CC(=O)NCc1cccc([N+](=O)[O-])c1
inactive: dose: 25.0 mg/kg/injection, schedule: Q01DX005 (ip), vehicle: saline 111 % of control | dose: 100.0 mg/kg/injection, schedule: Q01DX005 (ip), vehicle: saline 102 % of control

CSc1cc2c(cc1N)Cc1cc(F)ccc1-2
inactive: dose: 100.0 mg/kg/injection, schedule: Q01DX001 (ip), vehicle: carboxymethylcellulose (CMC) 98 % of control | dose: 200.0 mg/kg/injection, schedule: Q01DX001 (ip), vehicle: carboxymethylcellulose (CMC) 98 % of control | dose: 400.0 mg/kg/injection, schedule: Q01DX001 (ip), vehicle: carboxymethylcellulose (CMC) 95 % of control

CC(C)(C)C(=O)CN
inactive: [11] 116 % of control | [7] 101 % of control and 104 % of control | [8] 101 % of control | [12] 119 % of control | [9] 93 % of control and 97 % of control | [10] 109 % of control | [13] 122 % of control | [15] 101 % of control | [16] 93 % of control

Cc1ccc(C(O)c2nnc(C(O)c3ccc(C)cc3)nn2)cc1 (stereo not drawn)
inactive: [1] 88 % of control and 107 % of control and 100 % of control | [2] 100 % of control and 96 % of control | [3] 96 % of control and 100 % of control

Cc1ccc(S(=O)(=O)OC2CCC(N3C(=O)c4ccccc4C3=O)CC2)cc1 (stereo not drawn)
inactive: dose: 100.0 mg/kg/injection, schedule: Q01DX001 (ip), vehicle: saline with Tween-80 100 % of control | dose: 200.0 mg/kg/injection, schedule: Q01DX001 (ip), vehicle: saline with Tween-80 102 % of control | dose: 400.0 mg/kg/injection, schedule: Q01DX001 (ip), vehicle: saline with Tween-80 98 % of control

Cc1c2ccccc2c(CSCCC(N)C(=O)O)c2ccccc12 (stereo not drawn)
inactive: [17] 89 % of control | [18] 91 % of control | [19] 110 % of control

COc1c(CO)c2c(c(OC)c1OC)-c1ccc(OC)c(=O)cc1[C@@H](NC(C)=O)CC2
inactive: dose: 33.0 mg/kg/injection, schedule: Q01DX015 (ip), vehicle: saline 122 % of control

O=C1OC(=O)c2ccc([N+](=O)[O-])c3c([N+](=O)[O-])ccc1c23
inactive: [17] 88 % of control | [18] 95 % of control | [19] 91 % of control

COCc1ccc(COC)cc1
inactive: [7] 96 % of control | [8] 103 % of control | [9] 95 % of control | [10] 108 % of control | [15] 98 % of control | [16] 100 % of control

COc1ccc(-n2c(C)csc2=S)cc1
inactive: dose: 100.0 mg/kg/injection, schedule: Q04DX003 (ip), vehicle: saline with Tween-80 94 % of control | dose: 200.0 mg/kg/injection, schedule: Q04DX003 (ip), vehicle: saline with Tween-80 97 % of control

COc1cccc(S(C)(=O)=O)c1
inactive: dose: 75.0 mg/kg/injection, schedule: Q01DX009 (ip), vehicle: saline 105 % of control | dose: 75.0 mg/kg/injection, schedule: Q04DX003 (ip), vehicle: saline 101 % of control | dose: 150.0 mg/kg/injection, schedule: Q01DX009 (ip), vehicle: saline 97 % of control | dose: 150.0 mg/kg/injection, schedule: Q04DX003 (ip), vehicle: saline 101 % of control | dose: 300.0 mg/kg/injection, schedule: Q01DX009 (ip), vehicle: saline 92 % of control | dose: 300.0 mg/kg/injection, schedule: Q04DX003 (ip), vehicle: saline 100 % of control
